Data published in patent EP0257993B1, “Nucleic acid fragment encoding herbicide resistant plant acetolactate synthase” (priority 1986, dated 1988).
Like-named read-outs stand apart in the source and are kept apart here.

Columns and labels:
[1] = system: Brassica napus; assay: Brassica napus plants sprayed with chlorsulfuron; format: in vivo, Brassica napus cv. Olga
[2] = system: ALS; assay: ALS assay, wild type Brassica napus; format: biochemical
Description: Keep on ice. • 2. […] 16K rpm, 4°C. • 4. […] Incubate on ice for 30 minutes. • 6. […] Decant supernatant. • 7. Resuspend pellet in 1 ml cold column buffer. • 8. […] Let this run through column. • 9. Elute proteins with 2X volume of extract loaded. […] Incubate reaction for 1 hour, 30°C. • 12. […] Spin in microfuge 5 minutes. • 13. […] Read at OD 530.

[3] = system: calli of B. vulgaris; assay: Chlorsulfuron resistance of sugarbeet calli; format: cell-based, Beta vulgaris 87193
From the text: Selection for transformed plant cells was applied as follows. […] The number of resistant colonies was counted after 20-30 days. More than one may be observed at each wound. Transformants were excised as follows. Callus was removed from the wound/explant with a surgical blade and cultured independently on fresh selective media. Some Agrobacterium can escape from counter-selection. Additional washes in cefotaxime containing liquid media are possible, as is repeated transfer to cefotaxime containing agar solidified plates. […]

[4] = system: tobacco callus; details: Kanamycin, 50 mg/L
Description: For plant cell transformations, standard aseptic techniques for the manipulation of sterile media and axenic plant/bacterial cultures were followed, including the use of a laminar flow hood for all transfers. Recipes for media are given in Example VI. Potted tobacco plants for leaf disk infections were grown in a growth chamber maintained for a 12 hr. 24°C day, 12 hr, 20°C night cycle, with approximately 80% relative humidity, under mixed cool white fluorescent and incandescent lights. Tobacco leaf disk infections were carried out essentially by the method of Horsch et al. (1985) Science 227, 1229.
Young leaves, not fully expanded and approximately 4-6 inches in length, were harvested with a scalpel from approximately 4-6 week old tobacco plants (Nicotiana tabacum var. Xanthi). The leaves were surface sterilized for 30 minutes by submerging them in approximately 500 ml of a 10% Chlorox, 0.1% SDS solution and then rinsed 3 times with sterile deionized water. Leaf disks, 6 mm in diameter, were prepared from whole leaves using a sterile paper punch.
Leaf disks were inoculated by submerging them for several minutes in 20 ml of a 1:10 dilution of an overnight Agrobacterium culture carrying the plasmid GCKNT13. Agrobacterium cultures were started by inoculating 10 ml of YEB broth with a single bacterial colony removed form a R-agar plate. The culture was grown for approximately 17-20 hours in 18 mm glass culture tubes in a New Brunswick platform shaker maintained at 28°C.
After inoculation, the leaf disks were placed in petri dishes containing CN agar medium. The dishes were sealed with paraflm and incubated under mixed fluorescent and "Gro and Sho" plant light (General Electric) for 2-3 days in a culture room maintained at approximately 25°C.
[…] Cefotaxime was kept as a frozen 100 mg/ml stock solution and added aseptically (filter sterilized through a 0.45 µm filter) to the media after autoclaving. A fresh kanamycin stock (50 mg/ml) was made for each use and was filter sterilized into the autoclaved media.
Leaf disks were incubated under the growth conditions described above for 3 weeks and then transferred to fresh media of the same composition.
Root formation on selective and non-selective media was recorded within 3 weeks.
Callus growth on selective and non-selective media was recorded within 3 weeks.

For COc1nc(C)nc(NC(=O)NS(=O)(=O)c2ccccc2Cl)n1 [chlorsulfuron], the “growth of plants sprayed with chlorsulfuron” value (from here on “growth of plants sprayed”) ([1]; Ro #1, 0.3 ppm) was “++”, the “growth of plants sprayed” value ([1]; Ro #1, 1 ppm) was “++” and the “growth of plants sprayed” value ([1]; Ro #1, 3 ppm) was “++”. For the same compound, the “growth of plants sprayed” value ([1]; Ro #1, 10 ppm) was “+”, the “growth of plants sprayed” value ([1]; Ro #2, 0.3 ppm) was “++” and the “growth of plants sprayed” value ([1]; Ro #2, 1 ppm) was “+”. For the same compound, the “growth of plants sprayed” value ([1]; Ro #2, 3 ppm) was “-”, the “growth of plants sprayed” value ([1]; Ro #2, 10 ppm) was “-” and the “growth of plants sprayed” value ([1]; Ro #3, 0.3 ppm) was “++”. For the same compound, the “growth of plants sprayed” value ([1]; Ro #3, 1 ppm) was “+”, the “growth of plants sprayed” value ([1]; Ro #3, 3 ppm) was “+” and the “growth of plants sprayed” value ([1]; Ro #3, 10 ppm) was “-”. The “growth of plants sprayed” value ([1]; Ro #4, 0.3 ppm) was “++”, the “growth of plants sprayed” value ([1]; Ro #4, 1 ppm) was “+” and the “growth of plants sprayed” value ([1]; Ro #4, 3 ppm) was “-”. For the same compound, the “growth of plants sprayed” value ([1]; Ro #4, 10 ppm) was “-”, the “growth of plants sprayed” value ([1]; Ro #5, 0.3 ppm) was “+++” and the “growth of plants sprayed” value ([1]; Ro #5, 1 ppm) was “++”. The “growth of plants sprayed” value ([1]; Ro #5, 3 ppm) was “++”, the “growth of plants sprayed” value ([1]; Ro #5, 10 ppm) was “+” and the “growth of plants sprayed” value ([1]; untransformed, 0.3 ppm) was “++”. The “growth of plants sprayed” value ([1]; untransformed, 1 ppm) was “+”, the “growth of plants sprayed” value ([1]; untransformed, 3 ppm) was “-” and the “growth of plants sprayed” value ([1]; untransformed, 10 ppm) was “-”. The “Percent Uninhibited ALS Activity” value ([2]; 1ppb) was 86.6%, the “Percent Uninhibited ALS Activity” value ([2]; 10ppb) was 28.2% and the “Percent Uninhibited ALS Activity” value ([2]; 100ppb) was 10.1%. For the same compound, the “Percent Uninhibited ALS Activity” value ([2]; 1000ppb) was 7.6%, the “level of chlorsulfuron resistance in calli of B. vulgaris” value (shortened to “level of chlorsulfuron resistance”) ([3]; 87193/0 (untransformed), Chlorsulfuron 10 ppb) was 0/15 and the “level of chlorsulfuron resistance” value ([3]; 87193/0 (untransformed), Chlorsulfuron 30 ppb) was 0/15. For the same compound, the “level of chlorsulfuron resistance” value ([3]; 87193/152 (transformed, pAGS152), Chlorsulfuron 10 ppb) was 15/15, the “level of chlorsulfuron resistance” value ([3]; 87193/152 (transformed, pAGS152), Chlorsulfuron 30 ppb) was 15/15 and the “level of chlorsulfuron resistance” value ([3]; 87193/152 (transformed, pAGS152), Chlorsulfuron 100 ppb) was 15/15. The “level of chlorsulfuron resistance” value ([3]; 87193/152 (transformed, pAGS152), Chlorsulfuron 300 ppb) was 15/15, the “level of chlorsulfuron resistance” value ([3]; 87193/152 (transformed, pAGS152), Chlorsulfuron 1000 ppb) was 15/15 and the “level of chlorsulfuron resistance” value ([3]; 87193/152 (transformed, pAGS152), Chlorsulfuron 3000 ppb) was 3/15. For the same compound, the “level of chlorsulfuron resistance” value ([3]; 87193/152 (transformed, pAGS152), Chlorsulfuron 10000 ppb) was 0/15.

NC[C@H]1O[C@H](O[C@H]2[C@H](O)[C@@H](O[C@H]3O[C@H](CO)[C@@H](O)[C@H](N)[C@H]3O)[C@H](N)C[C@@H]2N)[C@H](O)[C@@H](O)[C@@H]1O [Kanamycin] was tested, and the “Number of transformed shoot explants producing callus on selective and non-selective media” value (“Number … on selective and non-selective media” for short) ([4]; EXP. #1, GV3850) was 0/10, the “Number … on selective and non-selective media” value ([4]; EXP. #1, GVKK) was 8/13 and the “Number … on selective and non-selective media” value ([4]; EXP. #1, GVKNT13) was 53/62. For the same compound, the “Number … on selective and non-selective media” value ([4]; Exp. #2, GV3850) was 0/25, the “Number … on selective and non-selective media” value ([4]; Exp. #2, GVKK) was 16/23 and the “Number … on selective and non-selective media” value ([4]; Exp. #2, GVKNT13) was 81/102.
